Assays:
[1] = system: FcγR-mediated phagocytosis of anti-D-coated RBCs by monocyte-macrophages (Mφ); assay: Monocyte monolayer assay (MMA): inhibition of phagocytosis of anti-D-sensitized RBCs; type: cell-based, human; settings: for inhibition of phagocytosis over the test concentration range: 10^−4 down to 10^−9 mol per L
From the text: The test concentration of immunoglobulin (anti-D or IVIg) was chosen after titration of each immunoglobulin on its own to inhibit FcγR and phagocytosis of anti-D-coated RBCs using a monocyte monolayer assay (MMA) as previously described in Rampersad et al., supra and Foo et al., supra. […] The two controls used in these experiments were chemical alone and immunoglobulin alone. For each experiment, the controls and a mixture of chemical and immunoglobulin in phosphate buffered saline (PBS) pH 7.4, were placed in separate tubes (Sarstedt) and gently rotated for 24 hours at room temperature. The solutions were then transferred to respective cellulose dialysis tubing membranes with a molecular size cut off of 12,000 daltons (Sigma-Aldrich) that had been cut to length and washed as per the manufacturer's directions by boiling in a solution containing one mmol/L ethylenediaminetetraacetic acid (EDTA) (BioShop) and 2% sodium bicarbonate (Fisher Scientific) in PBS. Dialysis was performed in large beakers of PBS for 5-7 days at 4° C. with daily changes of PBS.
Preparation of anti-D-sensitized R2R2 red blood cells (RBCs) has been previously described in Rampersad et al., supra and Foo et al., supra. Briefly, RBCs were resuspended in PBS to 5% concentration, mixed with an equal volume of human polyclonal anti-D (Immucor, Tex., Houston, USA) in PBS solution, and then incubated for 1 hour at 37° C. and 5% CO2. After which, the sensitized RBCs were washed four times in PBS and resuspended to 2.5% in PBS. […] The MMA was performed as previously described in Foo et al., supra, without modification.
A phagocytic index was calculated as described in Rampersad et al., supra; Foo et al., supra; and Branch et al., British Journal of Haematology, 1984; 56:19-29, as the unitless number of antibody-sensitized RBCs phagocytosed per 100 Mφ. Residual and phagocytosed RBCs were distinguished by relative differences in refracted light under phase-contrast microscopy. Percent inhibition was calculated as previously described^2 taking the phagocytic control index to be 100. […] Statistical significance of inhibition between treated and untreated Mφ were analysed using Student t-test and Analysis of Variance (ANOVA), and/or, General Linear Model (GLM) Analysis and Student-Newman-Keuls test. A p value of <0.05 was considered to be significant.
As previously described with minor modification, Rampersad et al., Transfusion, 2005; 45:384:93, an aliquot of R2R2 RBCs was removed from storage in Alsever's solution, Walker et al., American Association of Blood Banks, 11th ed., Bethesda, 1993, at 4° C. and washed three times in PBS without calcium or magnesium (Gibco/Invitrogen) at 2000 r.p.m. for 7 minutes (Sorvall RT 6000D centrifuge, Mandel Scientific Company Inc., Guelph, Ontario, Canada). The RBCs were resuspended in PBS to 5 percent concentration, mixed with an equal volume of human anti-D in PBS solution, and then incubated for 1 hour at 37° C. and 5 percent CO2 (Sanyo CO2 incubator), after which the sensitized RBCs were washed four times in PBS at 2000 r.p.m. for 7 minutes and resuspended to 2.5 percent in PBS.
As previously described with slight modification to improve the quality of the Mφ monolayer, Rampersad et al, supra, whole venous blood was drawn from donors into tubes (Vacutainer, ACD solution A, Becton Dickinson Vacutainer Systems, Franklin Lakes, N.J.) and mixed with an equal volume of PBS.

[2] = system: immune-mediated platelet destruction (anti-platelet antibody); assay: Model of immune-mediated platelet destruction, treatment prior to anti-platelet antibody; type: in vivo, mice; settings: administered prior to anti-platelet antibody
Experimental: Referring to FIG. 5, unlike the model in FIG. 4A-4C, the treatment was administered prior to injecting the mice with the anti-platelet antibody.

[3] = system: immune-mediated platelet destruction (anti-platelet antibody); assay: Model of immune-mediated platelet destruction, treatment at day 2; type: in vivo, mice; settings: single dose at day 2 instead of IVIg, anti-platelet antibody continued daily
Experimental: Referring now to FIGS. 4A through 4C, shown are the results using a model of immune-mediated platelet destruction wherein the anti-platelet antibody is administered on day 0 and daily thereafter. The platelet count fell abruptly after 24 hours (day 1) indicating platelets were destroyed after the antibody was recognized and bound to the platelets. […] In FIGS. 4B and 4C at day 2, instead of IVIg, two mice were administered a single dose of thimerosal or a nitrophenyl compound p-nitrophenyl methyl disulfide (G-B) (FIG. 4C).

PBMCs = assay: FACS annexin V-FITC/PI analysis for viable and apoptotic PBMCs; type: cell-based; settings: for effect on PBMC viability or apoptosis: 10^−4 to 10^−9 mol per L, 1 hour; for necrotic cell counts: PBMCs
From the text: Fluorescence-activated cell sorting (FACS) analysis (flow cytometry) and a TACS annexin V-fluorescein isothiocyanate (FITC) apoptosis detection kit (R&D Systems, Minneapolis, Minn.) were used to determine if disulfide-containing compounds benzoylmethyl methyl disulfide and phenyl methyl disulfide exert effects on viability or apoptosis of PBMCs. Briefly, PBMCs were isolated from whole blood as previously outlined and treated with culture medium or chemical from 10^−4 to 10^−9 mol per L for 1 hour at 37° C. and 5 percent CO2. They were then washed three times in PBS and collected by centrifugation at 12,000 r.p.m. for 5 to 10 minutes before being incubated in culture medium for 2 hours. After washing the cells once in cold PBS, according to the manufacturer's instructions, cells were then incubated with annexin V-FITC incubation reagent for 15 minutes at room temperature to stain membrane exposed phosphatidylserine, indicating early programmed cell death or apoptosis. Cells were then stained with propidium iodide (PI), specific for nonviable cells, to identify late apoptotic cells. FACS was performed with two-color analysis on a flow cytometer (FACSCalibur E4795, Becton Dickinson, Mississauga, Ontario, Canada) calibrated with fluorescent beads (CaliBRITE, BD Biosciences, San Jose, Calif.) and computer software for data analyses (Cell Quest, BD Biosciences).

Compound | inhibition of phagocytosis over the test concentration range [1] | effect on loss of platelets following anti-platelet antibody [2] | inhibition of phagocytosis ([1]; 10^−4 mol per L) | further results
p-nitrophenylethanol | None of these compounds were able to inhibit phagocytosis | zero platelet loss | – | –
O=[N+]([O-])c1ccccc1 [nitrobenzene, reference compound] | None of these compounds were able to inhibit phagocytosis | – | – | –
O=[N+]([O-])c1ccc(O)cc1 [p-nitrophenol, reference compound] | None of these compounds were able to inhibit phagocytosis | – | – | –
CSCc1ccc([N+](=O)[O-])cc1 [p-nitrobenzyl methyl sulfide] | did not inhibit phagocytosis | – | – | –
CSSc1ccc([N+](=O)[O-])cc1 [p-nitrophenyl methyl disulfide] | inhibited macrophage phagocytosis in vitro in a dose-dependent manner | little effect on the subsequent loss of platelets | 98.6% | platelet count after treatment [3]: the platelet count began to rise; inhibition of phagocytosis ([1]; 10^−7 mol per L): 29%
O=C(CS)c1ccccc1 [benzoylmethyl mercaptan] | ineffective | – | – | –
C[CH2][Hg][S]c1ccccc1C(=O)[O-].[Na+] [thimerosal] | – | little effect on the subsequent loss of platelets | – | platelet count after treatment [3]: the platelet count began to rise; inhibition of phagocytosis ([1]; used alone at 10^−3M, undialyzed): 100%; inhibition of phagocytosis after dialysis ([1]; used alone at 10^−5M or 10^−3M, after dialysis): no longer inhibits phagocytosis after dialysis; inhibition of phagocytosis ([1]; used alone at 10^−5M, undialyzed): 100%
CSSc1ccccc1 [phenyl methyl disulfide] | inhibition of phagocytosis in a dose-dependent manner | – | 54% | effect on PBMC viability or apoptosis (PBMCs): do not significantly affect PBMC viability or apoptosis; necrotic cell counts (PBMCs; 10^−4 mol per L): 2.36%; necrotic cell counts (PBMCs; 10^−5 mol per L): 1.05%
CC(O)c1ccccc1 (stereo not shown) [1-phenylethanol, reference compound] | None of these compounds were able to inhibit phagocytosis | – | – | –
CSSCC(=O)c1ccccc1 [benzoylmethyl methyl disulfide] | inhibited phagocytosis in a dose-dependent manner | – | 62% | effect on PBMC viability or apoptosis (PBMCs): do not significantly affect PBMC viability or apoptosis

Source: patent US20070184047A1, “Nitrophenyls and related compounds and thimerosal for the inhibition of immune related cell or tissue destruction” (Canadian Blood Services, priority 2005, published 2007)
